From US20230406885A1, “CYCLIC PEPTIDES FOR TRAPPING INTERLEUKIN-1 BETA” (MERCK SHARP & DOHME LLC, priority 2022, published 2023)
*1 amine or outer side, *2 acyl side, *3 side chain or, on linkers, in order; H or OH if unused. Where a SMILES comes first, the peptide text is derived from it. [ ]: non-standard residue; d: D form. Phe(4-(cis-4-COOH-cHex)) = N[C@@H](Cc1ccc([C@H]2CC[C@@H](C(=O)O)CC2)cc1)C(=O)O; Phe(4-(4-Ac-piperazinyl)) = CC(=O)N1CCN(c2ccc(C[C@H](N)C(=O)O)cc2)CC1; Trp(4-Cl)(βS-Me) = C[C@@H](c1c[nH]c2cccc(Cl)c12)[C@H](N)C(=O)O; Trp(βS-Me,4-F) = C[C@@H](c1c[nH]c2cccc(F)c12)[C@H](N)C(=O)O; Bip(4'-COOH) = N[C@@H](Cc1ccc(-c2ccc(C(=O)O)cc2)cc1)C(=O)O; 1Nal(3S-Me) = C[C@@H](c1cccc2ccccc12)[C@H](N)C(=O)O; Ala(pyrimidin-5-yl) = N[C@@H](Cc1cncnc1)C(=O)O; Phe(4-COOH) = N[C@@H](Cc1ccc(C(=O)O)cc1)C(=O)O; h3Pal(5-CN) = N#Cc1cncc(CC[C@H](N)C(=O)O)c1; Pro(4R-NH2) = N[C@H]1CN[C@H](C(=O)O)C1; 1Nal = N[C@@H](Cc1cccc2ccccc12)C(=O)O; AEF = NCCOc1ccc(C[C@H](N)C(=O)O)cc1; hTyr = N[C@@H](CCc1ccc(O)cc1)C(=O)O; X9 = CCCC[C@](C)(N[*:1])C(=O)[*:2]; hCha = N[C@@H](CCC1CCCCC1)C(=O)O; hPhe = N[C@@H](CCc1ccccc1)C(=O)O; 4Pal = N[C@@H](Cc1ccncc1)C(=O)O; dDab = NCC[C@@H](N)C(=O)O; dNMeA = CN[C@H](C)C(=O)O; Dab = NCC[C@H](N)C(=O)O; Dap = NC[C@H](N)C(=O)O; Aib = CC(C)(N)C(=O)O

Each molecule was assayed against T1, Recombinant human IL-1β (Homo sapiens, UniProt P01584) (assay: IL-6 assay in MRC5 cells: inhibition of IL-1β induced IL-6 secretion (AlphaLISA)). Details: not given.
T1 construct: purchased BioLegend 579404
Assay type: cell-based
Description: Procedure for IL-6 Assay in MRC5 Cells
The inhibition of IL-1β induced IL-6 secretion was evaluated in MRC5 cells. Recombinant human IL-1β (BioLegend 579404) at 2×EC80 concentration was prepared in seeding medium, EMEM (ATCC 30-2003) with 0.025% BSA (Sigma A9576), 1× penicillin/streptomycin (Gibco 15070-063), 1×NEAA (Gibco 11140-050), 1× GlutaMax (Gibco 35050-061), and 1× sodium pyruvate (Gibco 11360-070). 20 μL of IL-1β was added to a 384-well collagen-coated plate (Corning 354664) and pre-incubated at ambient temperature for 1 hour with 200 nL of compound dispensed using an ECHO 555 liquid handler. Human lung fibroblast MRC5 cells (ATCC CCL-171) were added at a density of 3000 cells/20 μL per well. The cells were prepared by passaging three times in growth medium, EMEM (ATCC 30-2003) with 10% fetal bovine serum (Gibco 16140-071), 1× penicillin/streptomycin (Gibco 15070-063), 1×NEAA (Gibco 11140-050), 1× GlutaMax (Gibco 35050-061), and 1× sodium pyruvate (Gibco 11360-070) in collagen-coated T175 flasks (Greiner 661950) and harvested in seeding medium after 5 minutes of 0.25% trypsin-EDTA (Gibco 25200-056) digestion. The 384-well collagen-coated plate, containing a final volume of 40 μL, was incubated at 37° C., 5% CO2 overnight. 5 μL of the conditioned medium was transferred to a 384-well AlphaLISA plate (PerkinElmer 6005350) for detection of IL-6 using the human AlphaLISA IL-6 kit (PerkinElmer AL223F) as per the manufacturer's protocol. 20 μL of the acceptor bead/biotinylated antibody mix was added to the 384-well AlphaLISA plate and incubated for 1 hour at ambient temperature. The donor bead mix was protected from light and 25 μL was added to the plate and incubated for 30 minutes at ambient temperature. The AlphaLISA plate was read on an EnVision multimode plate reader (Perkin Elmer model 2104) using the AlphaScreen setting (laser exc at 680 nm and emis at 570 nm). Dose response curves and IC50 values were analyzed using a 4-parameter logistic equation in Spotfire software (Tibco, Palo Alto, CA).

T1 sequence (P01584 117-269): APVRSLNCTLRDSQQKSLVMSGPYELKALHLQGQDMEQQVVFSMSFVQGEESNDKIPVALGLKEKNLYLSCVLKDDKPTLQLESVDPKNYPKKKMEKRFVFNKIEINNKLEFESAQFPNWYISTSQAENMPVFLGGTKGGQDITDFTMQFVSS

Question: With `CC(=O)NCCOc1ccc(C[C@@H]2NC(=O)[C@H](Cc3ccc(OCCN)cc3)NC(=O)[C@@H](C)NC(=O)[C@H](CC(C)C)NC(=O)[C@H](Cc3c[nH]c4ccccc34)NC(=O)[C@H](Cc3ccc(-c4ccc(C(=O)O)cc4)cc3)NC(=O)CNC(=O)[C@@H](C)N(C)C(=O)[C@H](CC(=O)O)NC(=O)[C@H]([C@@H](C)c3c[nH]c4cccc(F)c34)NC(=O)[C@@H]3C[C@@H](N)CN3C(=O)CNC(=O)[C@H](Cc3ccc(C(=O)O)cc3)NC(=O)[C@H](Cc3c[nH]c4ccccc34)NC2=O)cc1` [Example 164] (cyclo([AEF][AEF](Ac)W[Phe(4-COOH)]G[Pro(4R-NH2)][Trp(βS-Me,4-F)]D[dNMeA]G[Bip(4'-COOH)]WL[dA])) as the molecule, how does the IC50 read?
Answer: The IC50 was 0.459 nM.

Same assay, conditions: inhibition of IL-1β induced IL-6 secretion in MRC5 cells; IL-1β pre-incubated 1 hour with compound; read-out: MRC5 IC50

Question: With `CC(=O)NCCOc1ccc(C[C@@H]2NC(=O)CNC(=O)C(C)(C)NC(=O)[C@H](CC(C)C)NC(=O)[C@H](Cc3cccc4ccccc34)NC(=O)[C@H](Cc3ccc(-c4ccc(C(=O)O)cc4)cc3)NC(=O)CNC(=O)[C@@H](C)N(C)C(=O)[C@H](CC(=O)O)NC(=O)[C@H]([C@@H](C)c3cccc4ccccc34)NC(=O)[C@@H]3C[C@@H](N)CN3C(=O)CNC(=O)[C@H](Cc3ccc(C(=O)O)cc3)NC(=O)[C@H](Cc3c[nH]c4ccccc34)NC2=O)cc1` [Example 95] (cyclo([AEF](Ac)W[Phe(4-COOH)]G[Pro(4R-NH2)][1Nal(3S-Me)]D[dNMeA]G[Bip(4'-COOH)][1Nal]L[Aib]G)) as the molecule, how does the IC50 read?
Answer: The IC50 was 0.422 nM.

Question: With `C[C@@H]1C(=O)NCC(=O)N[C@@H](Cc2ccc(-c3ccc(C(=O)O)cc3)cc2)C(=O)N[C@@H](CCCCN)C(=O)N[C@@H](CO)C(=O)N[C@H](CCN)C(=O)N[C@@H](CCc2ccc(O)cc2)C(=O)N[C@@H](Cc2ccc(-c3ccc(C(=O)O)cc3)cc2)C(=O)N[C@@H](Cc2c[nH]c3ccccc23)C(=O)N[C@@H](Cc2ccc(C(=O)O)cc2)C(=O)NCC(=O)N2C[C@H](N)C[C@H]2C(=O)N[C@@H]([C@@H](C)c2c[nH]c3cccc(Cl)c23)C(=O)N[C@@H](CC(=O)O)C(=O)N1C` [Example 46] (cyclo([Bip(4'-COOH)]W[Phe(4-COOH)]G[Pro(4R-NH2)][Trp(4-Cl)(βS-Me)]D[dNMeA]G[Bip(4'-COOH)]KS[dDab][hTyr])) as the molecule, how does the IC50 read?
Answer: Its IC50 is 0.134 nM.

Question: Which IC50 does the source give for `C[C@@H]1C(=O)NCC(=O)N[C@@H](Cc2ccc(-c3ccc(C(=O)O)cc3)cc2)C(=O)N[C@@H](Cc2cncnc2)C(=O)N[C@@H](CN)C(=O)N[C@H](C)C(=O)N[C@@H](CCc2ccc(O)cc2)C(=O)N[C@@H](Cc2ccc(-c3ccc(C(=O)O)cc3)cc2)C(=O)N[C@@H](Cc2c[nH]c3ccccc23)C(=O)N[C@@H](Cc2ccc(C(=O)O)cc2)C(=O)NCC(=O)N2C[C@H](N)C[C@H]2C(=O)N[C@@H]([C@@H](C)c2cccc3ccccc23)C(=O)N[C@@H](CC(=O)O)C(=O)N1C` [Example 28] (cyclo([Bip(4'-COOH)]W[Phe(4-COOH)]G[Pro(4R-NH2)][1Nal(3S-Me)]D[dNMeA]G[Bip(4'-COOH)][Ala(pyrimidin-5-yl)][Dap][dA][hTyr])) here?
Answer: Its IC50 is 0.0393 nM.

Question: Which IC50 does the source give for `CC(=O)NCCOc1ccc(C[C@@H]2NC(=O)[C@H](CCc3ccc(O)cc3)NC(=O)C(C)(C)NC(=O)CNC(=O)[C@H](CCCCN)NC(=O)[C@H](Cc3ccc(-c4ccc(C(=O)O)cc4)cc3)NC(=O)CNC(=O)[C@@H](C)N(C)C(=O)[C@H](CC(=O)O)NC(=O)[C@H]([C@@H](C)c3cccc4ccccc34)NC(=O)[C@@H]3C[C@@H](N)CN3C(=O)CNC(=O)[C@H](Cc3ccc(C(=O)O)cc3)NC(=O)[C@H](Cc3c[nH]c4ccccc34)NC2=O)cc1` [Example 107] (cyclo([AEF](Ac)W[Phe(4-COOH)]G[Pro(4R-NH2)][1Nal(3S-Me)]D[dNMeA]G[Bip(4'-COOH)]KG[Aib][hTyr])) here?
Answer: Its IC50 is 0.0582 nM.

Same assay, conditions: inhibition of IL-1β induced IL-6 secretion in MRC5 cells; read-out: MRC5 IC50

Question: How did the IC50 turn out when `C[C@@H]1C(=O)NCC(=O)N[C@@H](Cc2ccc(-c3ccc(C(=O)O)cc3)cc2)C(=O)N[C@@H](Cc2ccncc2)C(=O)NCC(=O)N[C@H](CCN)C(=O)N[C@@H](CCC2CCCCC2)C(=O)N[C@@H](Cc2ccc([C@H]3CC[C@@H](C(=O)O)CC3)cc2)C(=O)N[C@@H](Cc2c[nH]c3ccccc23)C(=O)N[C@@H](Cc2ccc(C(=O)O)cc2)C(=O)NCC(=O)N2C[C@H](N)C[C@H]2C(=O)N[C@@H]([C@@H](C)c2cccc3ccccc23)C(=O)N[C@@H](CC(=O)O)C(=O)N1C` [Example 191] (cyclo([Phe(4-(cis-4-COOH-cHex))]W[Phe(4-COOH)]G[Pro(4R-NH2)][1Nal(3S-Me)]D[dNMeA]G[Bip(4'-COOH)][4Pal]G[dDab][hCha])) was run?
Answer: Its IC50 is 0.019 nM.

Question: For `CC(=O)NCCOc1ccc(C[C@@H]2NC(=O)[C@H](CCc3ccccc3)NC(=O)[C@@H](C)NC(=O)[C@H](CCN)NC(=O)[C@H](Cc3c[nH]c4ccccc34)NC(=O)[C@H](Cc3ccc(-c4ccc(C(=O)O)cc4)cc3)NC(=O)CNC(=O)[C@@H](C)N(C)C(=O)[C@H](CC(=O)O)NC(=O)[C@H]([C@@H](C)c3c[nH]c4cccc(F)c34)NC(=O)[C@@H]3C[C@@H](N)CN3C(=O)CNC(=O)[C@H](Cc3ccc(C(=O)O)cc3)NC(=O)[C@H](Cc3c[nH]c4ccccc34)NC2=O)cc1` [Example 163] (cyclo([AEF](Ac)W[Phe(4-COOH)]G[Pro(4R-NH2)][Trp(βS-Me,4-F)]D[dNMeA]G[Bip(4'-COOH)]W[Dab][dA][hPhe])), which IC50 is on record?
Answer: The IC50 was 0.156 nM.

Question: `CCCC[C@]1(C)NC(=O)[C@@H](CCN)NC(=O)CNC(=O)[C@H](Cc2ccncc2)NC(=O)[C@H](Cc2ccc(-c3ccc(C(=O)O)cc3)cc2)NC(=O)CNC(=O)[C@@H](C)N(C)C(=O)[C@H](CC(=O)O)NC(=O)[C@H]([C@@H](C)c2cccc3ccccc23)NC(=O)[C@@H]2C[C@@H](N)CN2C(=O)CNC(=O)[C@H](Cc2ccc(C(=O)O)cc2)NC(=O)[C@H](Cc2c[nH]c3ccccc23)NC(=O)[C@H](Cc2ccc(N3CCN(C(C)=O)CC3)cc2)NC1=O` [Example 200] (cyclo([Phe(4-(4-Ac-piperazinyl))]W[Phe(4-COOH)]G[Pro(4R-NH2)][1Nal(3S-Me)]D[dNMeA]G[Bip(4'-COOH)][4Pal]G[dDab][X9])) was tested. Which IC50 did it give?
Answer: Its IC50 is 0.034 nM.

Question: `CC(=O)NCCOc1ccc(C[C@@H]2NC(=O)[C@H](CCc3ccc(O)cc3)NC(=O)[C@@H](CCN)NC(=O)[C@H](CC(C)C)NC(=O)[C@H](Cc3c[nH]c4ccccc34)NC(=O)[C@H](Cc3ccc(-c4ccc(C(=O)O)cc4)cc3)NC(=O)CNC(=O)[C@@H](C)N(C)C(=O)[C@H](CC(=O)O)NC(=O)[C@H]([C@@H](C)c3c[nH]c4cccc(Cl)c34)NC(=O)[C@@H]3C[C@@H](N)CN3C(=O)CNC(=O)[C@H](Cc3ccc(C(=O)O)cc3)NC(=O)[C@H](Cc3c[nH]c4ccccc34)NC2=O)cc1` [Example 149] (cyclo([AEF](Ac)W[Phe(4-COOH)]G[Pro(4R-NH2)][Trp(4-Cl)(βS-Me)]D[dNMeA]G[Bip(4'-COOH)]WL[dDab][hTyr])) was tested. Which IC50 did it give?
Answer: The IC50 was 0.81 nM.

Question: For `CC(=O)NCCCC[C@@H]1NC(=O)[C@H](Cc2ccc(-c3ccc(C(=O)O)cc3)cc2)NC(=O)CNC(=O)[C@@H](C)N(C)C(=O)[C@H](CC(=O)O)NC(=O)[C@H]([C@@H](C)c2cccc3ccccc23)NC(=O)[C@@H]2C[C@@H](N)CN2C(=O)CNC(=O)[C@H](Cc2ccc(C(=O)O)cc2)NC(=O)[C@H](Cc2c[nH]c3ccccc23)NC(=O)[C@H](Cc2ccc(N3CCN(C(C)=O)CC3)cc2)NC(=O)[C@H](CCc2cncc(C#N)c2)NC(=O)[C@@H](C)NC(=O)[C@H](CC(C)C)NC1=O` [Example 208] (cyclo([Phe(4-(4-Ac-piperazinyl))]W[Phe(4-COOH)]G[Pro(4R-NH2)][1Nal(3S-Me)]D[dNMeA]G[Bip(4'-COOH)]K(Ac)L[dA][h3Pal(5-CN)])), which IC50 is on record?
Answer: Its IC50 is 0.018 nM.
